# In patent EP4737451A1 (Dong Wha Pharm. Co., Ltd., priority 2023, dated 2025):
# What was measured:
# [1] = target: T1, IRAK4 enzyme (Homo sapiens, UniProt Q9NWZ3); assay: IRAK4 enzyme activity inhibition (ADP-Glo, Promega kit); type: biochemical; details: for inhibition at 0.1 µM: test compound 0.1 uM; for inhibition at 1 µM: test compound 1 uM
# T1 construct: purchased Promega V2621
# T1 sequence (Q9NWZ3 1-460): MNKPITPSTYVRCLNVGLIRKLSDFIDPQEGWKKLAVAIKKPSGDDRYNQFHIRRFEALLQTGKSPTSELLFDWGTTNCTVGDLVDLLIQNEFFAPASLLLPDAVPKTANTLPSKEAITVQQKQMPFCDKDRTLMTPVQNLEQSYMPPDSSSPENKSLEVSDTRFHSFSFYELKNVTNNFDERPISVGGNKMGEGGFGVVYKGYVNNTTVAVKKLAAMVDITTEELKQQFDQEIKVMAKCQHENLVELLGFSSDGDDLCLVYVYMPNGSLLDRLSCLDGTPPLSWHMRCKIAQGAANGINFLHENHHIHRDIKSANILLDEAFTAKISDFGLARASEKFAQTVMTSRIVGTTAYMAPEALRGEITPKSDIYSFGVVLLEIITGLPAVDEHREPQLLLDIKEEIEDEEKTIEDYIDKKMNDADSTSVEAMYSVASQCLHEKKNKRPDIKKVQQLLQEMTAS
# Method: An experiment on IRAK4 enzyme activity inhibition of the compound of the present invention was conducted.
# An IRAK4 enzyme kit (purchased from Promega, product number: V2621) was used to dilute a mixed solution between 0.1 µg/µL of myelin basic protein (MBP), which is an enzyme-reactive substrate, and 1.25 mM of ATP with a reaction buffer (40 mM Tris-HCl, pH 7.5; 20 mM MgCl2; 0.1 mg/mL BSA; 50 µM DTT) according to the instructions, so as to dispense 2 µL in a 384-well white plate, and then to add 1 µL of a test compound, which was gradient diluted starting from 1 mM, to a 384-well plate. After that, an IRAK4 enzyme was diluted with a reaction buffer to a final concentration of 5 ng/µL, then 2 µL/well was dispensed into a 384-well white plate and reacted at 37°C for 60 minutes. After completion of a reaction, an ADP-GloTM enzyme test kit (purchased from Promega, product number: V9102) was used to add 5 µL of ADP-Glo reaction reagent and cause a reaction at 37°C for 40 minutes, and then 10 µL of enzyme chromogenic reagent was added again to measure a luminescence signal using equipment for measuring absorbance (THECAN, Microplate Reader). An activity inhibition rate was calculated from a measured value, and a 50% inhibition concentration (IC50 value) was analyzed through a non-linear regression analysis based on the % inhibition for each concentration of the test compound, and is shown in Table 2.
# [2] = target: T2, IRAK1 enzyme (Homo sapiens, UniProt P51617); assay: IRAK1 enzyme activity inhibition (ADP-Glo, Promega kit); type: biochemical; details: for inhibition at 0.1 µM: test compound 0.1 uM; for inhibition at 1 µM: test compound 1 uM
# T2 construct: purchased Promega VA7477
# T2 sequence (P51617 whole entry): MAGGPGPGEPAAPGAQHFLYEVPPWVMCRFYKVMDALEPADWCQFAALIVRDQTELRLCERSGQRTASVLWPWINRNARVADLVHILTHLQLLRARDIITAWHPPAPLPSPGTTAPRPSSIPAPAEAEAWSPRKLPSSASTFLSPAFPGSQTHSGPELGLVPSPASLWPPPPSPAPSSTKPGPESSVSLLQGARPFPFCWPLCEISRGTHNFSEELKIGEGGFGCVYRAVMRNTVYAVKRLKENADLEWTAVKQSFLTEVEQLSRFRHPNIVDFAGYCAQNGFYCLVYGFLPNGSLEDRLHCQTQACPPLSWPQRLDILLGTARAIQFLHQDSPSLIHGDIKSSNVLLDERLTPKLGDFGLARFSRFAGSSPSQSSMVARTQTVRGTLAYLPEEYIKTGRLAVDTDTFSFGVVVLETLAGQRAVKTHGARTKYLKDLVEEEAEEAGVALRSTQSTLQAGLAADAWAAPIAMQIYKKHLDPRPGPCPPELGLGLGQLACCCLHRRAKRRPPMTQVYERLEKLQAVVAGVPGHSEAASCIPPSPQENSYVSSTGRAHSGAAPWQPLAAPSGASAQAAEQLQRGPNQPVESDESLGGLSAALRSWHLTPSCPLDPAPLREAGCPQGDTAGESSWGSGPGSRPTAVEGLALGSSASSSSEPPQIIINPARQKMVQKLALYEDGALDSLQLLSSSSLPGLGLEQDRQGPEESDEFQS
# Method: An experiment on IRAK1 enzyme activity inhibition of the compound of the present invention was conducted.
# An IRAK1 enzyme kit (purchased from Promega, product number: VA7477) was used to dilute a mixed solution between 0.1 µg/µL of protein kinase B (AKT), which is an enzyme-reactive substrate, and 1.25 mM of ATP with a reaction buffer (40 mM Tris-HCl, pH 7.5; 20 mM MgCl2; 0.1 mg/mL BSA; 50 µM DTT) according to the instructions, so as to dispense 2 µL in a 384-well white plate, and then to add 1 µL of a test compound, which was gradient diluted starting from 1 mM, to a 384-well white plate. After that, an IRAK1 enzyme was diluted with a reaction buffer to a final concentration of 5 ng/µL, then 2 µL/well was dispensed into a 384-well white plate and reacted at 37°C for 60 minutes. After completion of a reaction, an ADP-GloTM enzyme test kit (purchased from Promega, product number: V9102) was used to add 5 µL of ADP-Glo reaction reagent and cause a reaction at 37°C for 40 minutes, and then 10 µL of enzyme chromogenic reagent was added again to measure a luminescence signal using equipment for measuring absorbance (THECAN, Microplate Reader). An activity inhibition rate was calculated from a measured value, and a 50% inhibition concentration (IC50 value) was analyzed through a non-linear regression analysis based on the % inhibition for each concentration of the test compound, and is shown in Table 3.
compound,measurement,setting,value
"CC(C)(O)CCn1cc2cc(NC(=O)c3cccc([N+](=O)[O-])c3)c(N3CCC(C(C)(C)O)CC3)cc2n1 [Example 30, N-(2-(3-hydroxy-3-methylbutyl)-6-(4-(2-hydroxypropan-2-yl)piperidin-1-yl)-2H-indazol-5-yl)-3-nitrobenzamide]",IC50,[1],0.88 nM
same,inhibition at 0.1 µM,[1],82.8%
same,inhibition at 0.1 µM,[2],8.6%
"CC(C)(O)CCn1cc2cc(NC(=O)c3cccc(-c4nccs4)c3)c(N3CCOCC3)cc2n1 [Example 27, N-(2-(3-hydroxy-3-methylbutyl)-6-morpholino-2H-indazol-5-yl)-3-(thiazol-2-yl)benzamide]",inhibition at 0.1 µM,[1],57.3%
same,inhibition at 0.1 µM,[2],17.6%
same,inhibition at 1 µM,[2],25.3%
"CC(C)(O)CCn1cc2cc(NC(=O)c3cc(F)cc([N+](=O)[O-])c3)c(N3CCOCC3)cc2n1 [Example 24, 3-fluoro-N-(2-(3-hydroxy-3-methylbutyl)-6-morpholino-2H-indazol-5-yl)-5-nitrobenzamide]",IC50,[1],13.1 nM
same,inhibition at 0.1 µM,[1],83.9%
same,inhibition at 0.1 µM,[2],26.9%
same,inhibition at 1 µM,[2],45.5%
"CNC(=O)CNC(=O)c1ccc(-c2cc3nn(CCC(C)(C)O)cc3cc2NC(=O)c2cccc([N+](=O)[O-])c2)cc1 [Example 41, N-(2-(3-hydroxy-3-methylbutyl)-6-(4-((2-(methylamino)-2-oxoethyl)carbamoyl)phenyl)-2H-indazol-5-yl)-3-nitrobenzamide]",inhibition at 0.1 µM,[1],69%
same,inhibition at 0.1 µM,[2],0.4%
"O=C(Nc1cc2cn(CCN3CCOCC3)nc2cc1-c1ccc(F)cc1)c1cccc([N+](=O)[O-])c1 [Example 34, N-(6-(4-fluorophenyl)-2-(2-morpholinoethyl)-2H-indazol-5-yl)-3-nitrobenzamide]",inhibition at 0.1 µM,[1],69.4%
same,inhibition at 1 µM,[1],88.2%
same,inhibition at 0.1 µM,[2],4.6%
same,inhibition at 1 µM,[2],17.4%
"CS(=O)(=O)CCn1ncc2cc(NC(=O)c3cccc([N+](=O)[O-])c3)c(N3CCOCC3)cc21 [Example 52, N-(1-(2-(methylsulfonyl)ethyl)-6-morpholino-1H-indazol-5-yl)-3-nitrobenzamide]",inhibition at 0.1 µM,[1],21.2%
same,inhibition at 0.1 µM,[2],0%
"COCCn1cc2cc(NC(=O)c3cccc([N+](=O)[O-])c3)c(N3CCOCC3)cc2n1 [Example 11, N-(2-(2-methoxyethyl)-6-morpholino-2H-indazol-5-yl)-3-nitrobenzamide]",inhibition at 0.1 µM,[1],40.4%
same,inhibition at 1 µM,[1],56.9%
"CC(C)(O)CCn1cc2cc(NC(=O)c3cccc([N+](=O)[O-])c3)cc(-c3ccoc3)c2n1 [Example 16, N-(7-(furan-3-yl)-2-(3-hydroxy-3-methylbutyl)-2H-indazol-5-yl)-3-nitrobenzamide]",inhibition at 0.1 µM,[1],48.8%
same,inhibition at 1 µM,[1],71%
same,inhibition at 1 µM,[2],17.2%
"CN(C)CCn1cc2cc(NC(=O)c3cccc([N+](=O)[O-])c3)c(N3CCOCC3)cc2n1 [Example 10, N-(2-(2-(dimethylamino)ethyl)-6-morpholino-2H-indazol-5-yl)-3-nitrobenzamide]",IC50,[1],99.7 nM
same,inhibition at 0.1 µM,[1],49.5%
same,inhibition at 1 µM,[1],83.4%
"CC(C)(O)CCn1cc2cc(NC(=O)c3cccc([N+](=O)[O-])c3)c(-c3cccc(C(=O)N4CCOCC4)c3)cc2n1 [Example 35, N-(2-(3-hydroxy-3-methylbutyl)-6-(3-(morpholine-4-carbonyl)phenyl)-2H-indazol-5-yl)-3-nitrobenzamide]",inhibition at 0.1 µM,[1],64.6%
same,inhibition at 0.1 µM,[2],33.1%
same,inhibition at 1 µM,[2],60.8%
"CC(C)(O)CCn1cc2cc(NC(=O)c3cncc([N+](=O)[O-])c3)c(-c3ccsc3)cc2n1 [Example 7, N-(2-(3-hydroxy-3-methylbutyl)-6-(thiophen-3-yl)-2H-indazol-5-yl)-5-nitronicotinamide]",inhibition at 0.1 µM,[1],28.1%
same,inhibition at 1 µM,[1],57.7%
"CC(C)(O)CCn1cc2cc(NC(=O)c3cccc([N+](=O)[O-])c3)c(N3CCSCC3)cc2n1 [Example 40, N-(2-(3-hydroxy-3-methylbutyl)-6-thiomorpholino-2H-indazol-5-yl)-3-nitrobenzamide]",inhibition at 0.1 µM,[1],69.7%
same,inhibition at 0.1 µM,[2],6.5%
same,inhibition at 1 µM,[2],11.2%
"O=C(Nc1cc2cn(CCN3CCCCC3)nc2cc1N1CCOCC1)c1cccc([N+](=O)[O-])c1 [Example 9, N-(6-morpholino-2-(2-(piperidin-1-yl)ethyl)-2H-indazol-5-yl)-3-nitrobenzamide]",inhibition at 0.1 µM,[1],56.9%
same,inhibition at 1 µM,[1],79.5%
"NC(=O)COCCn1cc2cc(NC(=O)c3cccc(C(N)=O)c3)c(N3CCOCC3)cc2n1 [Example 18, N-(2-(2-(2-amino-2-oxoethoxy)ethyl)-6-morpholino-2H-indazol-5-yl)isophthalamide]",inhibition at 0.1 µM,[1],54.8%
same,inhibition at 1 µM,[1],65.6%
same,inhibition at 1 µM,[2],23.2%
"CS(=O)(=O)CCn1cc2cc(NC(=O)c3cccc([N+](=O)[O-])c3)c(N3CCOCC3)cc2n1 [Example 13, N-(2-(2-(methylsulfonyl)ethyl)-6-morpholino-2H-indazol-5-yl)-3-nitrobenzamide]",inhibition at 0.1 µM,[1],18.6%
same,inhibition at 1 µM,[1],19.2%
same,inhibition at 0.1 µM,[2],1.3%
same,inhibition at 1 µM,[2],0%
"CCOC(=O)[C@H](NC(=O)c1ccc(-c2cc3nn(CCC(C)(C)O)cc3cc2NC(=O)c2cccc(S(N)(=O)=O)c2)cc1)C(C)C [Example 47, Ethyl (4-(2-(3-hydroxy-3-methylbutyl)-5-(3-sulfamoylbenzamido)-2H-indazol-6-yl)benzoyl)-D-valinate]",inhibition at 0.1 µM,[1],56.8%
same,inhibition at 0.1 µM,[2],1.3%
"CC(C)(O)CCn1cc2cc(NC(=O)c3cccc(C(N)=O)c3)c(-c3ccoc3)cc2n1 [Example 6, N-(6-(furan-3-yl)-2-(3-hydroxy-3-methylbutyl)-2H-indazol-5-yl)isophthalamide]",inhibition at 0.1 µM,[1],35.5%
same,inhibition at 1 µM,[1],67%
"CC(C)(O)CCn1cc2cc(NC(=O)c3cncc([N+](=O)[O-])c3)c(-c3ccoc3)cc2n1 [Example 5, N-(6-(furan-3-yl)-2-(3-hydroxy-3-methylbutyl)-2H-indazol-5-yl)-5-nitronicotinamide]",inhibition at 0.1 µM,[1],27.9%
same,inhibition at 1 µM,[1],35.4%
"CONC(=O)c1ccc(-c2cc3nn(CCC(C)(C)O)cc3cc2NC(=O)c2cccc(S(N)(=O)=O)c2)cc1 [Example 44, N-(2-(3-hydroxy-3-methylbutyl)-6-(4-(methoxycarbamoyl)phenyl)-2H-indazol-5-yl)-3-sulfamoylbenzamide]",inhibition at 0.1 µM,[1],61.9%
"CC(C)(O)CCn1cc2cc(NC(=O)c3cccc([N+](=O)[O-])c3)c(-c3ccsc3)cc2n1 [Example 8, N-(2-(3-hydroxy-3-methylbutyl)-6-(thiophen-3-yl)-2H-indazol-5-yl)-3-nitrobenzamide]",inhibition at 0.1 µM,[1],21.7%
same,inhibition at 1 µM,[1],50.3%
"CN(C)CCn1cc2cc(NC(=O)c3cccc(-c4nccs4)c3)c(-c3ccsc3)cc2n1 [Example 12, N-(2-(2-(dimethylamino)ethyl)-6-(thiophen-3-yl)-2H-indazol-5-yl)-3-(thiazol-2-yl)benzamide]",inhibition at 0.1 µM,[1],31.5%
"CC(C)(O)CCn1cc2cc(NC(=O)c3cccc(S(N)(=O)=O)c3)c(-c3ccc(C(=O)NCC(F)(F)F)cc3)cc2n1 [Example 42, N-(2-(3-hydroxy-3-methylbutyl)-6-(4-((2,2,2-trifluoroethyl)carbamoyl)phenyl)-2H-indazol-5-yl)-3-sulfamoylbenzamide]",inhibition at 0.1 µM,[1],65.1%
"CC(C)(O)CCn1cc2cc(NC(=O)c3cccc([N+](=O)[O-])c3)c(-c3ccoc3)cc2n1 [Example 4, N-(6-(furan-3-yl)-2-(3-hydroxy-3-methylbutyl)-2H-indazol-5-yl)-3-nitrobenzamide]",inhibition at 0.1 µM,[1],42.1%
same,inhibition at 1 µM,[1],67.4%
